Target: T1, hPR (recombinant human progesterone receptor) (Homo sapiens, UniProt P06401)
T1 construct: made in house; host or cells: SF9 insect cells (ATCC CRL1711), recombinant baculovirus (BaculoGold Transfection Kit, PharMingen 21000K)
T1 sequence (P06401 1-933): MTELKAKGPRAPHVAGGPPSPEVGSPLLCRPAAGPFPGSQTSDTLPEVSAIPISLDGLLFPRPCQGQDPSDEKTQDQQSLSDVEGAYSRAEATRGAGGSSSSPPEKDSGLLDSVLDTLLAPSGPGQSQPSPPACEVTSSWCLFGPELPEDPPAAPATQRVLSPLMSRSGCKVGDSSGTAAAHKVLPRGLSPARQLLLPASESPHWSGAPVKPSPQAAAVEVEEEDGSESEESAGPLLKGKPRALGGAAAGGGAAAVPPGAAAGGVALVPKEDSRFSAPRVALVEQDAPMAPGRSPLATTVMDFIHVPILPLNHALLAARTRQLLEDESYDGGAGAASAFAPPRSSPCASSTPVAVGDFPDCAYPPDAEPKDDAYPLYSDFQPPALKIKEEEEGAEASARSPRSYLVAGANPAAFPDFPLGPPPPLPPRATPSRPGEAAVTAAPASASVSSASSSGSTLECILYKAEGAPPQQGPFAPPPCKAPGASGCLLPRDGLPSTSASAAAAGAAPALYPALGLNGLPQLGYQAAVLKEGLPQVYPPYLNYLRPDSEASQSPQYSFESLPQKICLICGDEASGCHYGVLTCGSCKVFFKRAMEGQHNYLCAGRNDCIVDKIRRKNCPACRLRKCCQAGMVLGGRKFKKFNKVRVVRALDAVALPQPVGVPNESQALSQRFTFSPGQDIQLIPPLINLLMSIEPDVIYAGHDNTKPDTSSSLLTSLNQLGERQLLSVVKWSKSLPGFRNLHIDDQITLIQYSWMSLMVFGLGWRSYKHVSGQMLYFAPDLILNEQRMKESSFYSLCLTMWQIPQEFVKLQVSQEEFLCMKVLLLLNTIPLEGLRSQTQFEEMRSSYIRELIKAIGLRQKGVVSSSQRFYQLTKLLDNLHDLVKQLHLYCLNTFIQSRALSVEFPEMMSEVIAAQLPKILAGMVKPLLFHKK
Experiment: Relative bond affinity (RBA) on recombinant human progesterone receptor, displacement of tritiated 17α,21-dimethyl-19-nor-Δ4,9-pregnadien-3,20-dione
Assay type: binding
Conditions: for RBA hPR: Progesterone = 100, 0° C., 24 hours; for affinity for the progesterone receptor (in words): conclusion in words
Text: 1--Activity on the hormonal receptors using either the natural hormonal receptor of a rat (AR), or the recombinant human receptor (PR, GR and ER).
Human progesterone receptor
The recombinant human progesterone receptor was obtained by superexpression in an insect-Baculovirus cell system by methodology described by WEBB et al. in Journal of Methods in Cell and Molecular Biology, (1990), Vol. 2 N° 4, pp. 173-188 and whose use is described for the expression of human hormonal receptors, for example the human glucocorticoid receptor (SRINIVASAN et al. Molecular Endocrinology, (1990), Vol. 4 N° 2, pp. 209-216).
The BaculoGold Transfection Kit was used (PharMingen, reference 21000K) to insert the cDNA fragment described by KASTNER et al. (The EMBO Journal, (1990), Vol. 9 N° 5, pp. 1603-1614), containing the region coding for the human progesterone receptor and to prepare the corresponding recombinant virus. The recombinant virus was used to express the progesterone receptor in SF9 insect cells (ATCC CRL1711), by the known methodology mentioned previously.
2×10^7 to 2.5×10^7 SF9 cells were cultivated in a […] "Falcon" flask in a TNM-FH "SIGMA" medium supplemented with 10% of foetal calf serum (FCS) and with 50 micrograms/ml of gentamycin. After infection, then incubation at 27° C. for 40 to 42 hours, the cells were lysed in 1 ml of lysis buffer (1) by a freezing-defrosting cycle which was repeated twice more. The supernatant containing the recombinant human progesterone receptor was kept in liquid nitrogen in doses of 1 ml. The supernatant was diluted at the time of use according to a dilution range varying from 1/10th to 1/100th with 10 mM Tris, 0.25 M saccharose, HCl buffer at pH 7.4 containing 0.1% gelatin and then was incubated at 0° C. for 24 hours with a constant concentration (T) of tritiated 17α,21-dimethyl-19-nor-Δ4,9-pregnadien-3,20-dione in the presence of increasing concentrations either of unlabelled progesterone (0-2500×10^-9 M), or of unlabelled product under test (1 to 25000×10^-9 M). The concentration of bound tritiated 17,21-dimethyl 19-nor-Δ4,9-[…] (B) was then measured in each incubate by the technique of adsorption with carbon dextran.
Calculation of the relative bond affinity (RBA).
The following 2 curves were traced: percentage of bound tritiated hormone B/BO as a function of the logarithm of the concentration of unlabelled reference hormone or as a function of the logarithm of the concentration of the unlabelled product under test.
The straight line of the following equation was determined:
BO=Concentration of bound tritiated hormone in the absence of any unlabelled product,
B=Concentration of bound tritiated hormone in the presence of a concentration X of unlabelled product,
B min=Concentration of bound tritiated hormone in the presence of a large excess of cold reference hormone (500 nM). The intersections of the straight line I50 and the curves allowed the evaluation of the concentrations of unlabelled reference hormone (CH) and of the unlabelled product under test (CX) which inhibited by 50% the specific binding of the tritiated hormone on the receptor.
The relative bond affinity (RBA) of the product under test was determined by the equation:
The RBA's of the reference products estradiol, progesterone, dexamethasone and testosterone were arbitrarily taken to be equal to 100.

SMILES | RBA hPR | affinity for the progesterone receptor (in words)
CCCCN(C)S(=O)(=O)CCCCCOc1ccc([C@H]2C[C@]3(C)[C@@H](O)CC[C@H]3[C@@H]3CCc4cc(O)ccc4[C@H]32)cc1 [Example 7, N-butyl-5-[4-(Δ1,3,5(10)-estratrien-3,17β-diol-11β-yl)phenoxy]-N-methyl-pentanesulfonamide] | 111 | marked affinity
CN(CC(F)(F)C(F)(F)C(F)(F)F)S(=O)(=O)CCCCCOc1ccc([C@H]2C[C@]3(C)[C@@H](O)CC[C@H]3[C@@H]3CCc4cc(O)ccc4[C@H]32)cc1 [Example 8, 5-[4-(Δ1,3,5(10)-estratrien-3,17β-diol-11βyl)-Phenoxy]-N-(2,2,3,3,4,4,4-heptafluorobutyl)-N-methyl-pentanesulfonamide] | 55 | marked affinity
CCCCNS(=O)(=O)CCCCCOc1ccc([C@H]2C[C@]3(C)[C@@H](O)CC[C@H]3[C@@H]3CCc4cc(O)ccc4[C@H]32)cc1 [Example 2, N-butyl-5-[4-(Δ1,3,5(10)-estratrien-3,17β-diol-11β-yl)phenoxy]-pentanesulfonamide] | 37 | marked affinity

Source: patent US5494907A, “11-β substituted-19-nor steroids” (Roussel UCLAF, priority 1993, dated 1996)
